Data from patent US12156918B2, “Neuroendocrine cancer targeted therapy” (THE UAB RESEARCH FOUNDATION, priority 2018, dated 2024).
Where a SMILES comes first, the peptide text is derived from it. [ ]: non-standard residue; d: D form. The star is where a group is joined. Dolaproine = CO[C@@H]([C@@H]1CCCN1)[C@@H](C)C(=O)O; Dil = CC[C@H](C)[C@H](NC)[C@@H](CC(=O)O)OC; X1 = C[C@@H](N*)[C@@H](O)c1ccccc1; NMeV = CN[C@H](C(=O)O)C(C)C

How the values were obtained:
[1] = system: BON-1 cells; experiment: In vitro anti-cancer toxicity (IC50), Luminescent Cell Viability Assay; type: cell-based, human; conditions: 3-day incubation
Protocol: In vitro anti-cancer toxicity (IC50). BON cell line was utilized to compare the toxicity of ADC. 75 uL of culture media containing cells (viability >95%) with a density of 5×10^4 cells/mL was added in each well of 96-well plate. ADC or MMAE solution was sterilized by 0.2 μm filter and diluted to different concentrations with complete medium. After 4-hr incubation in regular cell culture incubator, 75 μL of ADC or MMAE with gradient concentrations were mixed with cells in the 96-well plate. The well plate was covered by another 96-well plate filled with PBS to prevent medium evaporation during treatment period. After 3-day incubation, the toxicity result was generated through Luminescent Cell Viability Assay (Promega, Madison, […]).

[2] = system: microtubule; experiment: Microtubule de-polymerization imaging; type: cell-based, human; conditions: BON cell line
[3] = system: human CD8+ T cells; experiment: Flow cytometry of cytokine expression in CD3/CD28 stimulated T cells; type: cell-based; conditions: 2 days incubation (100 nM elsewhere in the source)
Protocol: Therefore, our novel anti-SSTR2 mAb has great potential as a drug delivery vehicle in the form of ADC. […] Using flow cytometry, we analyze the effect of our SSTR2 mAb on the expression of cytokines in the CD3/CD28 stimulated human CD8+ T cells after incubating with mAb for 2 days.
Moreover, the possible effect of the disclosed anti-SSTR2 mAb on cytokine production in CD8^+ T cells was also tested. Post CD3/CD28 stimulation, human CD8^+ T cells were incubated with either 100 nM of SST analog (Octreotide) or 100 nM of the anti-SSTR2 mAb for 2 days. After incubation, flow cytometry was performed to analyze the expression of IL-2 and IFN-γ.

| Structure (SMILES) | IC50 [1] | mechanism of NET cell proliferation inhibition [2] | increase of IFN-γ expression [3] | increase of IL-2 expression [3] |
| --- | --- | --- | --- | --- |
| CC[C@H](C)[C@@H]([C@@H](CC(=O)N1CCC[C@H]1[C@H](OC)[C@@H](C)C(=O)N[C@H](C)[C@@H](O)c1ccccc1)OC)N(C)C(=O)[C@@H](NC(=O)[C@@H](NC)C(C)C)C(C)C [MMAE, monomethyl auristatin E] (H-[NMeV]V[Dil][Dolaproine]-X1) | 2 nM | microtubule de-polymerization |  |  |
| C[C@@H](O)[C@@H]1NC(=O)[C@H](CCCCN)NC(=O)[C@@H](Cc2c[nH]c3ccccc23)NC(=O)[C@H](Cc2ccccc2)NC(=O)[C@@H](NC(=O)[C@H](N)Cc2ccccc2)CSSC[C@@H](C(=O)N[C@H](CO)[C@@H](C)O)NC1=O [Octreotide] |  |  | 2.2 folds | 1.6 folds |
